Experimental data from patent publication US12114658B2, “Compounds having a nitrogen-containing unsaturated six-membered ring and agricultural and horticultural fungicides containing the same as active ingredients” (MITSUI CHEMICALS CROP & LIFE SOLUTIONS, INC., priority 2018, dated 2024).

Legend:
Magnaporthe grisea = experiment: whole plant or invertebrate; type: in vivo; settings: Pyricularia oryzae, in Oryza sativa, read-out: control value
[1] = system: Colletotrichum orbiculare; experiment: Test Example H: anthracnose on cucumber; settings: in Cucumis sativus, read-out: control value
Protocol: (§1) Disease development in Test Examples described below was evaluated in increments of 0.05 by setting 0 as no incidence of disease and 3 as disease development in a plant of untreated group. Further, control values were calculated using the following equation based on disease development.
(§2) <Control Value> Control value=100{1−(n/3)} • n=Disease development of each treated group
Seeds of a test plant (cucumber variety: Sagami Hanjiro) were planted and cultivated until the first leaf appeared. In the test, the inventive compounds were dissolved into a dimethyl sulfoxide-methanol mixture solution (volume ratio: 9/1), and the resultant solutions were diluted with well water to a concentration of 250 ppm. The thus-obtained dilutions were sprayed to the test plant (2.5 ml/pot). After the dilutions dried, a conidial suspension (2-4×10^5 conidia/ml) of Colletotrichum orbiculare was inoculated to the plant by spraying. After the inoculation, the plant was kept in a mist chamber at room temperature of 20 to 23° C. for about 24 hours to promote the onset of disease. The disease development was investigated 6 to 10 days after the inoculation, and the effectiveness of the dilutions was evaluated.

Puccinia recondita = experiment: Test Example E: brown rust on wheat; type: in vivo; settings: 250 ppm spray (2.5 ml/pot) before inoculation, wheat variety Norin 61, investigated 7 to 10 days after inoculation
Alternaia brassicicola = experiment: Test Example C: Alternaria sooty spot on cabbage; settings: Brassica oleracea, read-out: control value
Protocol: as §1, §2
Seeds of a test plant (cabbage variety: Shikidori) were planted and cultivated until the cotyledons extended. In the test, the inventive compounds were dissolved into a dimethyl sulfoxide-methanol mixture solution (volume ratio: 9/1), and the resultant solutions were diluted with well water to a concentration of 250 ppm. The thus-obtained dilutions were sprayed to the test plant (2.5 ml/pot). After the dilutions dried, a conidial suspension (4-8×10^5 conidia/ml) of Alternaia brassicicola was inoculated to the plant by spraying. After the inoculation, the plant was kept in a mist chamber at room temperature of 20 to 23° C. for about 48 hours to promote the onset of disease. The disease development was investigated 2 to 3 days after the inoculation, and the effectiveness of the dilutions was evaluated.

Measured: pest or weed control at 250 ppm

CCn1c(-c2ccccc2)c(-n2cnc(Cl)c2Cl)ccc1=O [IM-001, 5-(4,5-dichloro-1H-imidazol-1-yl)-1-ethyl-6-phenylpyridine-2(1H)-one]
> 50%: all assays above

CCn1c(-c2ccc(O)cc2)c(-n2ncc(C)c2Cl)cc(Cl)c1=O [PY-041, 3-chloro-5-(5-chloro-4-methyl-1H-pyrazol-1-yl)-1-ethyl-6-(4-hydroxyphenyl)pyridine-2(1H)-one]
> 50%: Magnaporthe grisea | Puccinia recondita | Alternaia brassicicola

COc1ccc(-c2c(-n3cc(C)cn3)ccc(=O)n2CC(F)F)cc1 [PY-031, 1-(2,2-difluoroethyl)-6-(4-methoxyphenyl)-5-(4-methyl-1H-pyrazol-1-yl)pyridine-2(1H)-one]
> 50%: Alternaia brassicicola

COn1c(-c2ccc(F)cc2)c(-n2cc(C)cn2)ccc1=O [PY-374, 6-(4-fluorophenyl)-1-methoxy-5-(4-methyl-1H-pyrazol-1-yl)pyridin-2(1H)-one]
> 50%: Alternaia brassicicola

CCn1c(-c2ccc(F)cc2)c(-n2nccc2Cl)cc(Cl)c1=O [PY-104, 3-chloro-5-(5-chloro-1H-pyrazol-1-yl)-1-ethyl-6-(4-fluorophenyl)pyridine-2(1H)-one]
> 50%: all assays above

CCn1c(-c2ccc(OC)cc2)c(-n2ncc(C)c2Cl)cc(Cl)c1=O [PY-018, 3-chloro-5-(5-chloro-4-methyl-1H-pyrazol-1-yl)-1-ethyl-6-(4-methoxyphenyl)pyridine-2(1H)-one]
> 50%: all assays above

CCn1c(-c2ccc(OC)cc2)c(-n2cc(C)cn2)ccc1=O [PY-036, 1-ethyl-6-(4-methoxyphenyl)-5-(4-methyl-1H-pyrazol-1-yl)pyridine-2(1H)-one]
> 50%: [1] | Alternaia brassicicola

COn1c(-c2ccc(F)cc2)c(-n2ncc(C)c2Cl)cc(Br)c1=O [PY-382, 3-bromo-5-(5-chloro-4-methyl-1H-pyrazol-1-yl)-6-(4-fluorophenyl)-1-methoxypyridin-2(1H)-one]
> 50%: all assays above

CCn1c(-c2ccccc2)c(-n2cnc(Cl)c2Cl)cc(Cl)c1=O [IM-003, 3-chloro-5-(4,5-dichloro-1H-imidazol-1-yl)-1-ethyl-6-phenylpyridine-2(1H)-one]
> 50%: all assays above

CCn1c(-c2ccc(F)cc2)c(-n2nccc2C(F)(F)F)cc(Cl)c1=O [PY-090, 3-chloro-1-ethyl-6-(4-fluorophenyl)-5-(5-(trifluoromethyl)-1H-pyrazol-1-yl)pyridine-2(1H)-one]
> 50%: all assays above

CCn1c(-c2ccc(OCC(F)F)cc2)c(-n2ncc(C)c2Cl)cc(Cl)c1=O [PY-046, 3-chloro-5-(5-chloro-4-methyl-1H-pyrazol-1-yl)-6-(4-(2,2-difluoroethoxy)phenyl)-1-eth ylpyridine-2(1H)-one]
> 50%: Magnaporthe grisea | Puccinia recondita | Alternaia brassicicola

COn1c(-c2ccc(F)cc2)c(-n2cc(C)cn2)cc(Br)c1=O [PY-381, 3-bromo-6-(4-fluorophenyl)-1-methoxy-5-(4-methyl-1H-pyrazol-1-yl)pyridin-2 (1H)-one]
> 50%: [1] | Alternaia brassicicola

COc1ccc(-c2c(-n3ncc(C)c3Cl)cc(Cl)c(=O)n2CC(F)F)cc1 [PY-032, 3-chloro-5-(5-chloro-4-methyl-1H-pyrazol-1-yl)-1-(2,2-difluoroethyl)-6-(4-methoxyphenyl)pyridine-2(1H)-one]
> 50%: all assays above
